Values joined by “and” are separate entries in the source; they are usually repeats but may differ in a detail not shown here. Identical values can stand only once. Numbers after ± are expanded uncertainties.
Details: Liquid; for electrical conductivity: electrochemical impedance spectroscopy; for mass density: Vibrating tube method

CCCCC[P+](CC)(CC)CC.O=S(=O)([N-]S(=O)(=O)C(F)(F)F)C(F)(F)F
viscosity (298.15 K, 60200 kPa, Falling or rolling sphere viscometry): 188.2 ± 8.8 mPa·s
electrical conductivity (298.15 K, 76900 kPa, Frequency=0 MHz): 0.0691 ± 0.0014 S/m
viscosity (298.15 K, 80100 kPa, Falling or rolling sphere viscometry): 237.6 ± 13 mPa·s
electrical conductivity (298.15 K, 99300 kPa, Frequency=0 MHz): 0.0551 ± 0.0011 S/m
viscosity (298.15 K, 100600 kPa, Falling or rolling sphere viscometry): 299.8 ± 18 mPa·s
viscosity (298.15 K, 120600 kPa, Falling or rolling sphere viscometry): 374.6 ± 26 mPa·s
viscosity (298.15 K, 120900 kPa, Falling or rolling sphere viscometry): 375.1 ± 26 mPa·s
electrical conductivity (298.15 K, 126100 kPa, Frequency=0 MHz): 0.0413 ± 0.00083 S/m
viscosity (298.15 K, 140500 kPa, Falling or rolling sphere viscometry): 464.2 ± 35 mPa·s
electrical conductivity (298.15 K, 149100 kPa, Frequency=0 MHz): 0.0333 ± 0.00067 S/m
viscosity (298.15 K, 160800 kPa, Falling or rolling sphere viscometry): 575.1 ± 48 mPa·s
viscosity (298.15 K, 180200 kPa, Falling or rolling sphere viscometry): 703.8 ± 63 mPa·s
viscosity (298.15 K, 199500 kPa, Falling or rolling sphere viscometry): 855.3 ± 82 mPa·s
electrical conductivity (298.15 K, 225400 kPa, Frequency=0 MHz): 0.0159 ± 0.00032 S/m
electrical conductivity (298.15 K, 249800 kPa, Frequency=0 MHz): 0.0127 ± 0.00026 S/m
electrical conductivity (298.16 K, 600 kPa, Frequency=0 MHz): 0.164 ± 0.0034 S/m
electrical conductivity (298.16 K, 1600 kPa, Frequency=0 MHz): 0.162 ± 0.0032 S/m
electrical conductivity (298.16 K, 201000 kPa, Frequency=0 MHz): 0.0201 ± 0.0004 S/m
viscosity (303.15 K, 100 kPa, Concentric cylinders viscometry): 67.86 ± 1.5 mPa·s
viscosity (303.15 K, 100 kPa, Falling or rolling sphere viscometry): 68.41 ± 2.4 mPa·s
mass density (303.15 K, 100 kPa): 1298.32 ± 1.3 kg/m3 [middle of 6 runs]
electrical conductivity (303.15 K, 101.33 kPa): 0.208 S/m and 0.207 S/m
viscosity (303.15 K, 700 kPa, Falling or rolling sphere viscometry): 68.43 ± 2.3 mPa·s
mass density (303.15 K, 1000 kPa): 1298.99 ± 1.3 kg/m3
mass density (303.15 K, 5000 kPa): 1301.97 ± 1.3 kg/m3
mass density (303.15 K, 10000 kPa): 1305.55 ± 1.3 kg/m3
viscosity (303.15 K, 10600 kPa, Falling or rolling sphere viscometry): 78.1 ± 2.1 mPa·s
mass density (303.15 K, 15000 kPa): 1309.08 ± 1.4 kg/m3
mass density (303.15 K, 20000 kPa): 1312.5 ± 1.4 kg/m3
viscosity (303.15 K, 20600 kPa, Falling or rolling sphere viscometry): 88.77 ± 2.6 mPa·s
mass density (303.15 K, 25000 kPa): 1315.86 ± 1.4 kg/m3
mass density (303.15 K, 30000 kPa): 1319.11 ± 1.4 kg/m3
viscosity (303.15 K, 30400 kPa, Falling or rolling sphere viscometry): 100.3 ± 3.1 mPa·s
mass density (303.15 K, 35000 kPa): 1322.31 ± 1.5 kg/m3
mass density (303.15 K, 40000 kPa): 1325.42 ± 1.5 kg/m3
viscosity (303.15 K, 40600 kPa, Falling or rolling sphere viscometry): 113.6 ± 3.9 mPa·s
mass density (303.15 K, 45000 kPa): 1328.53 ± 1.6 kg/m3
mass density (303.15 K, 50000 kPa): 1331.53 ± 1.6 kg/m3
viscosity (303.15 K, 50700 kPa, Falling or rolling sphere viscometry): 128 ± 4.7 mPa·s
viscosity (303.15 K, 60800 kPa, Falling or rolling sphere viscometry): 144.1 ± 5.7 mPa·s
viscosity (303.15 K, 80300 kPa, Falling or rolling sphere viscometry): 179.8 ± 8.2 mPa·s
viscosity (303.15 K, 100100 kPa, Falling or rolling sphere viscometry): 223.2 ± 12 mPa·s
electrical conductivity (308.15 K, 101.33 kPa): 0.256 S/m and 0.255 S/m
viscosity (313.15 K, 100 kPa, Concentric cylinders viscometry): 43.97 ± 0.99 mPa·s
viscosity (313.15 K, 100 kPa, Falling or rolling sphere viscometry): 44.35 ± 2.3 mPa·s [middle of 5 runs]
mass density (313.15 K, 100 kPa): 1290.13 ± 1.8 kg/m3 [middle of 6 runs]
electrical conductivity (313.15 K, 101.33 kPa): 0.31 S/m
viscosity (313.15 K, 700 kPa, Falling or rolling sphere viscometry): 44.4 ± 2.8 mPa·s
mass density (313.15 K, 1000 kPa): 1291.1 ± 1.3 kg/m3
mass density (313.15 K, 5000 kPa): 1294.18 ± 1.3 kg/m3
mass density (313.15 K, 10000 kPa): 1297.91 ± 1.3 kg/m3
viscosity (313.15 K, 10600 kPa, Falling or rolling sphere viscometry): 50.22 ± 1.1 mPa·s
mass density (313.15 K, 15000 kPa): 1301.54 ± 1.3 kg/m3
mass density (313.15 K, 20000 kPa): 1305.07 ± 1.4 kg/m3
viscosity (313.15 K, 20600 kPa, Falling or rolling sphere viscometry): 56.64 ± 1.3 mPa·s
mass density (313.15 K, 25000 kPa): 1308.48 ± 1.4 kg/m3
mass density (313.15 K, 30000 kPa): 1311.85 ± 1.4 kg/m3
viscosity (313.15 K, 30500 kPa, Falling or rolling sphere viscometry): 63.64 ± 1.5 mPa·s
mass density (313.15 K, 35000 kPa): 1315.16 ± 1.5 kg/m3
mass density (313.15 K, 40000 kPa): 1318.37 ± 1.5 kg/m3
viscosity (313.15 K, 40500 kPa, Falling or rolling sphere viscometry): 71.42 ± 1.8 mPa·s
mass density (313.15 K, 45000 kPa): 1321.53 ± 1.5 kg/m3
mass density (313.15 K, 50000 kPa): 1324.64 ± 1.6 kg/m3
viscosity (313.15 K, 50600 kPa, Falling or rolling sphere viscometry): 79.95 ± 2.2 mPa·s
viscosity (313.15 K, 60600 kPa, Falling or rolling sphere viscometry): 89.14 ± 2.6 mPa·s
viscosity (313.15 K, 80300 kPa, Falling or rolling sphere viscometry): 109.9 ± 3.7 mPa·s
viscosity (313.15 K, 99900 kPa, Falling or rolling sphere viscometry): 134.5 ± 5.1 mPa·s
electrical conductivity (318.15 K, 101.33 kPa): 0.371 S/m and 0.372 S/m
electrical conductivity (323.14 K, 800 kPa, Frequency=0 MHz): 0.434 ± 0.0087 S/m
electrical conductivity (323.14 K, 3200 kPa, Frequency=0 MHz): 0.423 ± 0.0085 S/m
electrical conductivity (323.14 K, 101600 kPa, Frequency=0 MHz): 0.17 ± 0.0034 S/m
electrical conductivity (323.14 K, 150900 kPa, Frequency=0 MHz): 0.113 ± 0.0023 S/m
electrical conductivity (323.14 K, 175500 kPa, Frequency=0 MHz): 0.0922 ± 0.0019 S/m
viscosity (323.15 K, 100 kPa, Concentric cylinders viscometry): 30.06 ± 0.68 mPa·s
viscosity (323.15 K, 100 kPa, Falling or rolling sphere viscometry): 29.89 ± 1.3 mPa·s [middle of 5 runs]
electrical conductivity (323.15 K, 100 kPa, Frequency=0 MHz): 0.437 ± 0.0092 S/m
mass density (323.15 K, 100 kPa): 1281.76 ± 1.8 kg/m3 [middle of 6 runs]
electrical conductivity (323.15 K, 101.33 kPa): 0.437 S/m and 0.44 S/m and 0.441 S/m
viscosity (323.15 K, 700 kPa, Falling or rolling sphere viscometry): 30.1 ± 1.6 mPa·s
mass density (323.15 K, 1000 kPa): 1282.87 ± 1.3 kg/m3
electrical conductivity (323.15 K, 2200 kPa, Frequency=0 MHz): 0.427 ± 0.0086 S/m

Source: the NIST ThermoML archive (doi:10.1021/acs.jced.8b00011)
